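Cultured in 96-well plates, cells were exposed to test compound for 48 hours across five concentrations. GI50 = concentration required for 50% inhibition of growth.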 Active and inactive are the calls of the source. No stated cut-off is given here; in the data, active = GI50 up to about 1.1 µM and inactive = higher.
Legend:
Assay in all cases: NCI-60 cell line screen, 48 h
786-0 = tested on: 786-0
A549 = tested on: A549
ACHN = tested on: ACHN
BT-549 = tested on: BT-549
CAKI-1 = tested on: CAKI-1
CCRF-CEM = tested on: CCRF-CEM
COLO 205 = tested on: COLO 205
DU-145 = tested on: DU-145
EKVX = tested on: EKVX
HCC 2998 = tested on: HCC 2998
HCT-116 = tested on: HCT-116
HCT-15 = tested on: HCT-15
HL-60 = tested on: HL-60
HOP-62 = tested on: HOP-62
HOP-92 = tested on: HOP-92
HT-29 = tested on: HT-29
Hs-578T = tested on: Hs-578T
IGROV-1 = tested on: IGROV-1
K562 = tested on: K562
KM12 = tested on: KM12
LOX IMVI = tested on: LOX IMVI
M14 = tested on: M14
MCF7 = tested on: MCF7
MDA-MB-231 = tested on: MDA-MB-231
MDA-MB-435 = tested on: MDA-MB-435
MDA-N = tested on: MDA-N
MOLT-4 = tested on: MOLT-4
Malme-3M = tested on: Malme-3M
NCI-H226 = tested on: NCI-H226
NCI-H460 = tested on: NCI-H460
NCI-H522 = tested on: NCI-H522
NCI/ADR-RES = tested on: NCI/ADR-RES
OVCAR-4 = tested on: OVCAR-4
OVCAR-5 = tested on: OVCAR-5
OVCAR-8 = tested on: OVCAR-8
PC-3 = tested on: PC-3
RPMI-8226 = tested on: RPMI-8226
RXF 393 = tested on: RXF 393
SF-268 = tested on: SF-268
SF-295 = tested on: SF-295
SF-539 = tested on: SF-539
SK-MEL-28 = tested on: SK-MEL-28
SK-MEL-2 = tested on: SK-MEL-2
SK-MEL-5 = tested on: SK-MEL-5
SK-OV-3 = tested on: SK-OV-3
SN12C = tested on: SN12C
SNB-19 = tested on: SNB-19
SNB-75 = tested on: SNB-75
SR = tested on: SR
SW-620 = tested on: SW-620
T47D = tested on: T47D
TK-10 = tested on: TK-10
U-251 = tested on: U-251
UACC-257 = tested on: UACC-257
UACC-62 = tested on: UACC-62
UO-31 = tested on: UO-31
A498 = tested on: A498
NCI-H23 = tested on: NCI-H23
OVCAR-3 = tested on: OVCAR-3

Measured: GI50

O=c1oc2ccccc2cc1-c1nc2ccccc2c(=O)[nH]1
inactive: 786-0 > 100 µM | A549 > 100 µM | ACHN 90.8 µM | BT-549 77.8 µM | CAKI-1 > 100 µM | CCRF-CEM > 100 µM | COLO 205 > 100 µM | DU-145 > 100 µM | EKVX > 100 µM | HCC 2998 > 100 µM | HCT-116 > 100 µM | HL-60 21.9 µM | HOP-62 > 100 µM | HOP-92 > 100 µM | HT-29 > 100 µM | Hs-578T > 100 µM | IGROV-1 > 100 µM | K562 > 100 µM | KM12 > 100 µM | LOX IMVI > 100 µM | M14 > 100 µM | MCF7 12 µM | MDA-MB-231 > 100 µM | MDA-MB-435 > 100 µM | MDA-N > 100 µM | MOLT-4 > 100 µM | Malme-3M > 100 µM | NCI-H226 > 100 µM | NCI-H460 > 100 µM | NCI-H522 > 100 µM | NCI/ADR-RES > 100 µM | OVCAR-4 > 100 µM | OVCAR-5 > 100 µM | OVCAR-8 > 100 µM | PC-3 > 100 µM | RPMI-8226 > 100 µM | RXF 393 > 100 µM | SF-268 > 100 µM | SF-295 54 µM | SF-539 > 100 µM | SK-MEL-28 > 100 µM | SK-MEL-2 > 100 µM | SK-MEL-5 > 100 µM | SK-OV-3 > 100 µM | SN12C > 100 µM | SNB-19 > 100 µM | SNB-75 69.3 µM | SR > 100 µM | SW-620 > 100 µM | T47D > 100 µM | TK-10 > 100 µM | U-251 50.4 µM | UACC-257 > 100 µM | UACC-62 > 100 µM | UO-31 > 100 µM
> 100 µM: HCT-15

C=C(C[C@@H](O)[C@H](C)NC(=O)OCc1ccccc1)C(=O)OC(C)(C)C
inactive: A498 > 100 µM | A549 > 100 µM | ACHN > 100 µM | BT-549 95.9 µM | CAKI-1 53.6 µM | CCRF-CEM 17.3 µM | COLO 205 > 100 µM | DU-145 45.7 µM | EKVX 76.6 µM | HCC 2998 > 100 µM | HCT-116 > 100 µM | HL-60 26.3 µM | HOP-62 > 100 µM | HOP-92 > 100 µM | HT-29 > 100 µM | Hs-578T > 100 µM | IGROV-1 > 100 µM | K562 35.9 µM | KM12 > 100 µM | LOX IMVI 53.8 µM | M14 > 100 µM | MCF7 61.7 µM | MDA-MB-231 > 100 µM | MDA-MB-435 49.7 µM | MDA-N 29.7 µM | MOLT-4 46.2 µM | Malme-3M > 100 µM | NCI-H226 > 100 µM | NCI-H23 45.6 µM | NCI-H460 > 100 µM | NCI-H522 38.6 µM | NCI/ADR-RES 66.2 µM | OVCAR-3 78.2 µM | OVCAR-4 47.5 µM | OVCAR-5 > 100 µM | OVCAR-8 66.8 µM | PC-3 > 100 µM | RPMI-8226 29.8 µM | SF-268 > 100 µM | SF-295 89.1 µM | SF-539 50 µM | SK-MEL-28 > 100 µM | SK-MEL-2 > 100 µM | SK-MEL-5 26.1 µM | SK-OV-3 > 100 µM | SN12C > 100 µM | SNB-19 > 100 µM | SNB-75 79.8 µM | SR 29.6 µM | SW-620 39.7 µM | T47D 13.1 µM | TK-10 > 100 µM | U-251 > 100 µM | UACC-257 32.1 µM | UACC-62 51.2 µM | UO-31 > 100 µM
> 100 µM: HCT-15
